Holding throughout (assay type): in vivo, mouse
One test concerns IL6. Kind of test: Serum IL6 in mice treated with prednisone. To be noted: separate cohort of mice treated with prednisone. On the procedure: (§1) At the end of the study, mice were sacrificed and muscle mass was assessed by dissecting and weighing the gastrocnemius and quadriceps. To confirm biological activity of prednisone, sera from a separate cohort of mice were collected and analyzed for IL6 and IL1β (Ani Lyctics, Inc., Gaithersburg, Md.).

Test [1] concerns C57BL/10ScSn-mdx/j mice. Briefly: Total body weight of mdx mice treated 4 weeks with prednisone with or without JA-16 (Example 2). To be noted: JA-16 60 mg/kg per week IP, prednisone 2 mg/kg SC 3 times a week. On the procedure:
(§2) Male C57BL/10ScSn-mdx/j and C57BL/10 (Jackson Laboratory, Bar Harbor, Me.). Mouse monoclonal anti-GDF-8 antibody JA-16, prednisone (P-9901, Sigma), or vehicle (peanut oil) was injected starting at age 5-7 weeks for 4 weeks. Mice were intraperitoneally (IP) injected with JA-16 at a dose of 60 mg/kg per week (double dosing at first week), or subcutaneously (SC) injected with prednisone at 2 mg/kg, 3 times a week. The body weight and grip strength were monitored before, during and after treatment. Results are shown in Table 3 and Table 4, respectively.

The next test relates to IL1β. Kind of test: Serum IL1β in mice treated with prednisone. The note with it: separate cohort of mice treated with prednisone. The procedure: as §1
The subject of test [2] is C57BL/10ScSn-mdx/j mice. Kind of test: Grip strength of mdx mice treated 4 weeks with prednisone with or without JA-16 (Example 2). The note with it: JA-16 60 mg/kg per week IP, prednisone 2 mg/kg SC 3 times a week. The procedure: as §2
In test [3] the test system is C57BL/10ScSn-mdx/j mice. Briefly: Gastrocnemius and quadriceps weight in mdx mice treated 4 weeks with prednisone with or without JA-16 (Example 2). To be noted: end of 4-week study. On the procedure:
Male C57BL/10ScSn-mdx/j and C57BL/10 (Jackson Laboratory, Bar Harbor, Me.). Mouse monoclonal anti-GDF-8 antibody JA-16, prednisone (P-9901, Sigma), or vehicle (peanut oil) was injected starting at age 5-7 weeks for 4 weeks. Mice were intraperitoneally (IP) injected with JA-16 at a dose of 60 mg/kg per week (double dosing at first week), or subcutaneously (SC) injected with prednisone at 2 mg/kg, 3 times a week.
as §1

On to `C[C@]12C=CC(=O)C=C1CC[C@@H]1[C@@H]2C(=O)C[C@@]2(C)[C@H]1CC[C@]2(O)C(=O)CO` [Prednisone, prednisone], for which the IL6 in sera entry in the test with IL6 is given as “reduced”. The “Total body weight (average ± SEM)” value is recorded as 17.6 ± 1.8 g with C57BL/10ScSn-mdx/j mice [1] (week 0 of trial); 20.9 ± 1.8 g in the test on C57BL/10ScSn-mdx/j mice [1] (week 1 of trial); 24.2 ± 1.6 g with C57BL/10ScSn-mdx/j mice [1] (week 2 of trial); 24.7 ± 1.5 g in the test on C57BL/10ScSn-mdx/j mice [1] (week 3 of trial); 25.9 ± 1.6 g in the test on C57BL/10ScSn-mdx/j mice [1] (week 4 of trial). The IL1β in sera result with IL1β is listed as “reduced”. In addition, the “Grip strength (average ± SEM)” value was 0.144 ± 0.010 lb in the test on C57BL/10ScSn-mdx/j mice [2] (week 0 of trial), 0.177 ± 0.006 lb in the test with C57BL/10ScSn-mdx/j mice [2] (week 3 of trial) and 0.213 ± 0.011 lb in the test with C57BL/10ScSn-mdx/j mice [2] (week 4 of trial). Moreover, the “Muscle weight (average ± SEM), Gastroc” value in the test on C57BL/10ScSn-mdx/j mice [3] was determined as 0.287 ± 0.023 g. Moreover, the “Muscle weight (average ± SEM), Quad” value in the test with C57BL/10ScSn-mdx/j mice [3] was 0.417 ± 0.029 g.

The values above are taken from patent US7785587B2, “Therapeutic methods for muscular or neuromuscular disorders” (Wyeth, priority 2003, dated 2010).
